Experiments:
[1] = test system: CREB; assay: Western blot of CREB activity (Ser133 phosphorylation) in primary neurons after neurotransmitter ligands, forskolin or H-89; format: cell-based, rat
From the text: With the primary neuronal cultures, we tested the ability of the constructed Boolean network to correctly predict the output activity, following an increase in the concentration of each input molecules. According to the logic equations of the CREB network (1), which provide the on/off state of CREB in response to the on/off states of input neurotransmitters (1), serotonin is the only input activates CREB. To verify this prediction experimentally, we treated primary neurons with equal micromolar concentrations (10 μM) of serotonin, glutamate, dopamine, GABA, and adenosine for 15 minutes and measured the activity of CREB by monitoring Ser133 phosphorylation (14). Receptors of these neurotransmitters are expressed in the primary cortical culture and this concentration is used in the literature to activate these receptors (17-22).
We also tried to verify the biological relevance of the stuck-at-1 and stuck-at-0 fault models used in Abdi et al (1). We tested the effect of serotonin on the activity of CREB when PKA, a highly vulnerable molecule in this network, is either activated (stuck-at-1) or inhibited (stuck-at-0), by forskolin or H-89, respectively. When PKA is stuck-at-1 or 0, the model predicts that serotonin should no longer activate CREB (1). To verify this experimentally, we treated primary neurons with serotonin in the presence or absence of either forskolin or H-89 (FIG. 1E). […] Thus, when the highly vulnerable molecule PKA is stuck-at-1, the network output is not correctly regulated by the input. […] Immunofluorescent analysis of CREB phosphorylation in primary neuron cultures exposed to vehicle, forskolin, or serotonin individually, or to serotonin following treatment with forskolin, was consistent with the results obtained by Western blotting for CREB phosphorylation. The cells were triple labeled with antibodies against Ser133 CREB (as a measure of CREB activity), Map-2 (as a marker that specifically labels neurons), and DRAQ-5 (as a nuclear marker that stains the nucleus of neuronal and normeuronal cells in primary culture). […] Consistent with the Western blot data (FIG. 1E), the effect of serotonin on the activity of CREB in neurons is attenuated, when serotonin was added after treatment with forskolin. […]
Protein extraction, and immunoblot analysis. […] Protein concentration was measured by Bio-Rad's protein assay and spectrometry at 595° A. Equal amounts of total protein were loaded on 4-12% gradient Bis-Tris gels, separated using the NuPAGE system (Invitrogen) and transferred onto nitrocellulose membrane. The membrane was probed with primary and secondary antibodies and signals were detected by chemiluminescence followed by autoradiography. […]

[2] = test system: CREB; assay: Immunofluorescent analysis of CREB phosphorylation (Ser133) in primary cortical culture; format: cell-based, rat
From the text: FIG. 6. Immunofluorescent analysis of primary cortical culture following treatment with vehicle, forskolin, serotonin, or serotonin and forskolin. Red represents the phosphorylated CREB (Ser^133) as a measure of CREB activity. Green represents the Map-2 staining as a specific neuronal marker and blue represent DRAQ-5 nuclear staining of all the cells in the primary culture (both neuronal and glial cells). Images were captured with the same confocal parameters for the four different treatment conditions.
We also tried to verify the biological relevance of the stuck-at-1 and stuck-at-0 fault models used in Abdi et al (1). We tested the effect of serotonin on the activity of CREB when PKA, a highly vulnerable molecule in this network, is either activated (stuck-at-1) or inhibited (stuck-at-0), by forskolin or H-89, respectively. When PKA is stuck-at-1 or 0, the model predicts that serotonin should no longer activate CREB (1). To verify this experimentally, we treated primary neurons with serotonin in the presence or absence of either forskolin or H-89 (FIG. 1E). […] Thus, when the highly vulnerable molecule PKA is stuck-at-1, the network output is not correctly regulated by the input. […]

[3] = test system: CREB; conditions: previous studies (reference 18); cited from earlier work
[4] = test system: CREB; assay: Western blot of endogenous CREB Ser133 phosphorylation and total CREB protein in primary cortical neurons after P/Q-type calcium channel or Gαi agonist/antagonist treatment; format: cell-based, rat
Procedure: We altered the activity or abundance of endogenous L AND/OR P/Q-type calcium channels and Gαi in primary cortical neurons from rats and then assayed for the changes in endogenous CREB activity or abundance (see Methods). We used primary neuronal culture as a model system because it has the most similar CREB signaling network to the in vivo signaling networks of the mammalian brain.
Primary cortical culture. Primary cortical cultures were prepared from brains of embryonic day 17 to 18 Sprague-Dawley rats (Charles River). After trituration of cortical sections with a glass pipette, 2 to 4×10^5 neurons were plated on a coverslip (diameter: 12 mm) precoated with poly d-lysine (BD Biocoat). For biochemical analysis, primary cortical cells were plated in 35 mm dishes precoated with poly d-lysine (˜3×10^6 neurons/dish). Neurons were grown in NEUROBASAL Medium supplemented with 0.5 mM L-glutamine, B27 (2%), and N2 (1%) supplements.
Protein extraction, and immunoblot analysis. Primary neurons were cultured as described. Cells were homogenized in ice cold lysate buffer (0.25 M Tris, pH 7.5) containing protease inhibitors (Protease Inhibitor Cocktail tablets, Boehringer Mannheim) and phosphatase inhibitors (Phosphatase Inhibitor Cocktails I & II, Sigma) and lysed through three cycles of freezing (in liquid nitrogen) and thawing (in 37° C. water bath). Protein concentration was measured by Bio-Rad's protein assay and spectrometry at 595° A. Equal amounts of total protein were loaded on 4-12% gradient Bis-Tris gels, separated using the NuPAGE system (Invitrogen) and transferred onto nitrocellulose membrane. The membrane was probed with primary and secondary antibodies and signals were detected by chemiluminescence followed by autoradiography. The following antibodies were used: anti-CREB antibody (Cell Signaling, 1:1000), anti-phospho Ser^133 CREB antibody (Cell Signaling, 1:1000), anti P/Q type calcium channel antibody (Chemicon, 1:1000), and anti-actin antibody (Sigma, 1:1000).
Analysis of CREB regulation by P/Q-type calcium channels or Gαi. Primary cortical neurons were cultured as described. We followed the methods of Dolmetsch et al. (13) to analyze the effect of calcium channel blockers on CREB activity. We characterized the signaling properties of the endogenous P/Q-type calcium channels by monitoring the endogenous activity and total protein levels of CREB. In order to minimize the effect of other elements of calcium or G protein signaling following neuronal depolarization, all experiments were performed without depolarizing the neurons. Previous time-course studies have shown that short-term Ser^133 phosphorylation of CREB are transient events and prolonged Ser^133 phoaphorylation (more than 40 minutes) is required for transcriptional activity (13, 14, 15). Therefore, in these experiments we analyzed the endogenous Ser^133 phosphorylation and total CREB protein abundance following at least 2 hours treatment with agonist or antagonists of P/Q-type calcium channels and 2 hours treatment with agonist or antagonist of Gαi, ω-Agatoxin IVA (Calbiochem), pertussis toxin (Sigma), and Mas-7 (Calbiochem) were dissolved in the appropriate vehicle and added to the medium. Following the treatment, cortical neurons were harvested, lysed, and subjected to Western blot analysis as described.

[5] = 2 hours treatment, pertussis toxin approximately 0.1 or 0.2 μg/ml, MAS-7 approximately 5 or 10 μM
[6] = long-term (12 h) treatment, approximately 1 μM, vs vehicle
[7] = short-term (2.5 h) treatment, approximately 1 μM, vs vehicle

O=S(=O)(NCCNC/C=C/c1ccc(Br)cc1)c1cccc2cnccc12 [H-89]
serotonin-stimulated activity of CREB under inhibition of PKA ([1]; about 10 μM H-89 30 minutes followed by 15 minutes about 10 μM serotonin): prevents serotonin from stimulating the activity of CREB

NCCc1c[nH]c2ccc(O)cc12 [serotonin]
activity of CREB (Ser133 phosphorylation) ([1]; 10 μM for 15 minutes, primary neurons, vs vehicle): most robust effect
activity of CREB on serotonin treatment following activation of PKA by forskolin, compared to serotonin only ([1]; about 10 μM forskolin 30 minutes followed by 15 minutes about 10 μM serotonin): did not affect the activity of CREB
activity of CREB, individual treatments ([1]; about 10 μM, forskolin 30 minutes, serotonin 15 minutes, primary neurons): activate CREB
activity of CREB (phospho-Ser133 staining) in neuronal and non-neuronal cells ([2]; primary cortical culture, triple labeled with phospho-CREB, Map-2, DRAQ-5): only increased the activity of CREB in the neurons
effect of serotonin on the activity of CREB in neurons when added after forskolin ([2]; serotonin added after treatment with forskolin): attenuated
Ser133 CREB phosphorylation [3]: can induce

pertussis toxin
Ser133 phosphorylation of CREB [4, 5]: increase
abundance of CREB [4, 5]: increase

ω-Agatoxin IVA
abundance of CREB [4, 6]: decreased
phosphorylation of CREB at Ser133 [4, 6]: decreased
phosphorylation of CREB at Ser133 [4, 7]: increased
total abundance of CREB [4, 7]: without changing

From US20100099741A1, “Molecular Targets for Treatment of Learning and Memory Dysfunction” (priority 2008, published 2010)
